# Test results from paper PMC5794004 (Bioorganic & medicinal chemistry, 2017).
# Legend:
# hCB2 receptors = hCB2 receptors (Homo sapiens, UniProt P34972); test: CB2 receptor radioligand binding, [3H]CP55,940, CHO-K1 hCB2 membranes; settings: for interaction with CB2R: up to 100 μM
# hCB1R = hCB1R (Homo sapiens, UniProt P21554); test: CB1 receptor radioligand binding, [3H]CP55,940, CHO-K1 hCB1R membranes; settings: for increase of [3H]CP55,940 binding at CB1R: maximal increase over vehicle
# MAGL = biological target: T1, MAGL (Homo sapiens, UniProt Q99685); test: MAGL activity assay, U937 cell homogenate; assay type: biochemical
# T1 sequence (Q99685 1-303): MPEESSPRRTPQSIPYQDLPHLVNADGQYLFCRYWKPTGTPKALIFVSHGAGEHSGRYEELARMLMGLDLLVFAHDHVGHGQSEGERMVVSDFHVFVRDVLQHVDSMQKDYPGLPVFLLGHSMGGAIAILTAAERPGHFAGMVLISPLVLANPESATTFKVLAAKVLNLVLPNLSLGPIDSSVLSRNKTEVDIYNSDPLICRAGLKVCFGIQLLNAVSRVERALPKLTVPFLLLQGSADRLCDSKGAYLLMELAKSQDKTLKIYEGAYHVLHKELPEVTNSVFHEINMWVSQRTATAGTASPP
# AEA uptake = AEA uptake assay, intact U937 cells; assay type: cell-based
# [1] = acute feeding model; cited from earlier work
# hCB2 receptors, sequence (P34972 whole entry): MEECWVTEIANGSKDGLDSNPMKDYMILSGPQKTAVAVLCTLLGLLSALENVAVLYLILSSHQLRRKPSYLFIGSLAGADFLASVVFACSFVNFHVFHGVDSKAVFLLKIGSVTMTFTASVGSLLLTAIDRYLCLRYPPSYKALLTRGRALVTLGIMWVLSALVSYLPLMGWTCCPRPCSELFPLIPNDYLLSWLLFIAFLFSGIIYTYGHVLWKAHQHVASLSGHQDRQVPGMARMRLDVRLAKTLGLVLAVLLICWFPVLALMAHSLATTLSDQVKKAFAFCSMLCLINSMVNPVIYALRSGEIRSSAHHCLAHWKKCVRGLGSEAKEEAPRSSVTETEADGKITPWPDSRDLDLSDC
# hCB1R, sequence (P21554 whole entry): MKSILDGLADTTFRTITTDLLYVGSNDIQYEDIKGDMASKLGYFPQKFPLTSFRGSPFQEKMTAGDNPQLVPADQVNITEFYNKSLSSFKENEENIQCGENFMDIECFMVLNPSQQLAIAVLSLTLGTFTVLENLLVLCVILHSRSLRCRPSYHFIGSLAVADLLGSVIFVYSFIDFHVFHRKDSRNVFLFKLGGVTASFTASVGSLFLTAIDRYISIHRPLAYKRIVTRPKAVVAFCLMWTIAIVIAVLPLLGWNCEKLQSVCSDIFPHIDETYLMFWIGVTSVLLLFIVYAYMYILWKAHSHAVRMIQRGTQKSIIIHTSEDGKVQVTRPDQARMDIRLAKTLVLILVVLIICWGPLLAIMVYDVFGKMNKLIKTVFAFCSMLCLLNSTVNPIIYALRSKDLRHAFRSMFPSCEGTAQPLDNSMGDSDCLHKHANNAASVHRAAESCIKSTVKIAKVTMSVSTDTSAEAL
smiles,measurement,setting,value
O=C(Nc1ccc(Cl)cc1)Nc1cccc(Nc2cccc(N3CCCC3)n2)c1 [SN15b],interaction with CB2R,hCB2 receptors,did not significantly interact
"O=C(Cc1ccc(Cl)cc1)Nc1cccc(-c2cccc(N3CCCC3)c2)c1 [SC33, 2-(4-Chlorophenyl)-N-[3′-(pyrrolidin-1-yl)biphenyl-3-yl]acetamide]",Ki,hCB2 receptors,~50 µM
same,binding to CB1R,hCB1R; at 100 μM,approx. 10%
same,"influence on [3H]CP55,940 binding to CB1R",hCB1R; up to 10 μM,does not influence
"O=C(Nc1ccc(Cl)cc1)Nc1cccc(-c2cccc(N3CCCC3)c2)c1 [SC4a, 1-(4-Chlorophenyl)-3-[3′-(pyrrolidin-1-yl)biphenyl-3-yl]urea]","increase of [3H]CP55,940 binding at CB1R",hCB1R,15–20%
"O=C(Nc1ccc(Cl)cc1)Nc1cccc(-c2cccc(N3CCCC3)n2)c1 [PSNCBAM-1, 1-(4-Chlorophenyl)-3-{3-[6-(pyrrolidin-1-yl)pyridin-2-yl]phenyl}urea]",binding to CB2R,hCB2 receptors; up to 10 μM,did not show any significant binding
same,MAGL result in words,MAGL,negative
same,AEA cell uptake result in words,AEA uptake,negative
same,food intake and body weight,[1],decrease food intake and body weight
same,"increase of [3H]CP55,940 binding at CB1R",hCB1R,15–20%
"O=C(Nc1ccc(Cl)cc1)Nc1cccc(Nc2cccc(N3CCCC3)c2)c1 [FG45a, 1-(4-Chlorophenyl)-3-(3-{[3-(pyrrolidin-1-yl)phenyl]amino}phenyl)urea]",interaction with CB2R,hCB2 receptors,did not significantly interact
